Results as given in ChEMBL document CHEMBL1201862, “PubChem BioAssay data set” (2004).
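Step 1: Grow cells in 96-well plates. Step 2: Expose to compound for 48 hours at 5 concentrations. Step 3: Interpolate endpoints linearly; if unreached, use highest concentration. Abbreviation: GI50, concentration required for 50% inhibition of growth.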 Activity calls are given as the source filed them. Rule as the data show it: active = GI50 up to about 1.1 µM and inactive = higher. Square brackets hold non-standard residues; d marks the D form. Peptide text beside a SMILES is read from it. * marks the point of attachment. X26 = COC1=CC(=O)N(C(=O)[C@@H](O*)C(C)C)[C@H]1Cc1ccccc1; Bn2Val = CC(C)[C@@H](C(=O)*)N(Cc1ccccc1)Cc1ccccc1; NMeV = CN[C@H](C(=O)O)C(C)C; dNMeA = CN[C@H](C)C(=O)O

Key:
Assay in all cases: NCI anticancer screen, dose series, 48 h
OVCAR-3 = test system: OVCAR-3
UACC-62 = test system: UACC-62
OVCAR-5 = test system: OVCAR-5
RPMI-8226 = test system: RPMI-8226
SNB-19 = test system: SNB-19
U-251 = test system: U-251
OVCAR-4 = test system: OVCAR-4
UACC-257 = test system: UACC-257
HOP-92 = test system: HOP-92
SK-MEL-28 = test system: SK-MEL-28
SNB-75 = test system: SNB-75
TK-10 = test system: TK-10
HCC 2998 = test system: HCC 2998
HCT-116 = test system: HCT-116
BT-549 = test system: BT-549
HOP-62 = test system: HOP-62
NCI-H23 = test system: NCI-H23
NCI-H522 = test system: NCI-H522
UO-31 = test system: UO-31

Measured: GI50

COc1ccc(\N=C/C=C/C(=C/COC(C)=O)OC(C)=O)cc1
inactive: OVCAR-3 20.7 µM | UACC-62 37.1 µM | OVCAR-5 40.5 µM | RPMI-8226 5.48 µM | SNB-19 58.6 µM | U-251 25.9 µM | OVCAR-4 27.2 µM | UACC-257 27.4 µM | HOP-92 20.5 µM | SK-MEL-28 26.9 µM | SNB-75 > 100 µM | TK-10 37.2 µM | HCC 2998 > 100 µM | HCT-116 5.53 µM | BT-549 33.3 µM | HOP-62 51.4 µM | NCI-H23 16.8 µM | NCI-H522 6.62 µM

N#Cc1c(-c2ccc(Cl)cc2)cc(-c2ccc(Nc3ccnc4cc(C(F)(F)F)ccc34)cc2)[nH]c1=O
inactive: OVCAR-3 8.26 µM | UACC-62 21.9 µM | OVCAR-5 > 40.5 µM | RPMI-8226 21.1 µM | SNB-19 9.73 µM | U-251 2.63 µM | OVCAR-4 8.41 µM | UACC-257 37.2 µM | HOP-92 17.1 µM | SK-MEL-28 8.49 µM | SNB-75 11.7 µM | TK-10 24.4 µM | HCC 2998 > 100 µM | HCT-116 4.76 µM | BT-549 17.4 µM | HOP-62 23.6 µM | NCI-H23 > 45 µM | NCI-H522 50 µM

Cc1c2c(n(Cc3ccccn3)c1C)NN=C(C#N)S2(=O)=O
inactive: OVCAR-3 > 100 µM | UACC-62 > 100 µM | OVCAR-5 > 100 µM | SNB-19 > 100 µM | U-251 > 100 µM | OVCAR-4 > 100 µM | UACC-257 > 100 µM | HOP-92 > 100 µM | SK-MEL-28 > 100 µM | SNB-75 > 100 µM | TK-10 > 100 µM | UO-31 > 100 µM | HCC 2998 > 100 µM | HCT-116 > 100 µM | BT-549 > 100 µM | HOP-62 > 100 µM | NCI-H23 > 100 µM | NCI-H522 > 100 µM

Cc1ccc([N+](=O)[O-])cc1NC(=O)C(=O)C1CCC2=C(Sc3ccccc3N2)C1=O (stereo not given)
inactive: OVCAR-3 23 µM | UACC-62 > 100 µM | OVCAR-5 > 100 µM | SNB-19 > 100 µM | U-251 > 100 µM | OVCAR-4 > 100 µM | UACC-257 > 100 µM | HOP-92 > 100 µM | SK-MEL-28 > 100 µM | SNB-75 > 100 µM | TK-10 > 100 µM | UO-31 60 µM | HCC 2998 > 100 µM | HCT-116 68.2 µM | BT-549 > 100 µM | HOP-62 > 100 µM | NCI-H23 > 100 µM | NCI-H522 > 100 µM

OCCSCc1cc(Cl)cc(Cl)c1O
inactive: OVCAR-3 > 100 µM | UACC-62 > 100 µM | OVCAR-5 > 100 µM | RPMI-8226 > 100 µM | SNB-19 > 100 µM | U-251 > 100 µM | OVCAR-4 > 100 µM | UACC-257 > 100 µM | HOP-92 57.9 µM | SK-MEL-28 > 100 µM | TK-10 > 100 µM | UO-31 > 100 µM | HCC 2998 > 100 µM | HCT-116 > 100 µM | BT-549 > 100 µM | HOP-62 > 100 µM | NCI-H23 > 100 µM | NCI-H522 > 100 µM

CC1N[B@@-](C)(c2ccc(C(F)(F)F)cc2)OC1c1ccccc1 (stereo not given in full)
inactive: OVCAR-3 57.8 µM | UACC-62 > 100 µM | OVCAR-5 > 100 µM | RPMI-8226 34.7 µM | SNB-19 > 100 µM | U-251 > 100 µM | OVCAR-4 > 100 µM | UACC-257 > 100 µM | HOP-92 20.4 µM | SK-MEL-28 > 100 µM | SNB-75 32.6 µM | TK-10 > 100 µM | UO-31 34.7 µM | HCC 2998 > 100 µM | HCT-116 89.3 µM | BT-549 > 100 µM | HOP-62 > 100 µM | NCI-H23 > 100 µM

CC(C)(C)n1c(=O)n2n(c1=O)C1c3cccc4cccc(c34)C2C2c3cccc4cccc(c34)C1n1c(=O)n(C(C)(C)C)c(=O)n12
inactive: OVCAR-3 16.3 µM | UACC-62 66.4 µM | OVCAR-5 > 100 µM | RPMI-8226 55.8 µM | SNB-19 > 100 µM | U-251 43 µM | UACC-257 > 100 µM | HOP-92 > 100 µM | SK-MEL-28 > 100 µM | SNB-75 10.8 µM | TK-10 93.5 µM | UO-31 > 100 µM | HCC 2998 64.3 µM | HCT-116 61.9 µM | BT-549 > 100 µM | HOP-62 67.3 µM | NCI-H23 95.7 µM | NCI-H522 36 µM

Cc1c(/C=N\NC(=S)N(C)CCN(C)C(=S)N/N=C\c2c(C)n(C)n(-c3ccccc3)c2=O)c(=O)n(-c2ccccc2)n1C
inactive: OVCAR-3 > 100 µM | UACC-62 > 100 µM | OVCAR-5 > 100 µM | SNB-19 > 100 µM | U-251 > 100 µM | OVCAR-4 > 100 µM | UACC-257 > 100 µM | HOP-92 > 100 µM | SNB-75 42.6 µM | TK-10 > 100 µM | UO-31 > 100 µM | HCC 2998 > 100 µM | HCT-116 > 100 µM | BT-549 > 100 µM | HOP-62 > 100 µM | NCI-H23 > 100 µM | NCI-H522 41.7 µM

Nc1nc(NCCCO)cc(=O)[nH]1
inactive: OVCAR-3 > 100 µM | UACC-62 > 100 µM | OVCAR-5 > 100 µM | RPMI-8226 > 100 µM | SNB-19 > 100 µM | U-251 > 100 µM | OVCAR-4 > 100 µM | UACC-257 > 100 µM | HOP-92 > 100 µM | SK-MEL-28 > 100 µM | SNB-75 > 100 µM | UO-31 > 100 µM | HCC 2998 > 100 µM | HCT-116 > 100 µM | BT-549 > 100 µM | HOP-62 > 100 µM | NCI-H23 > 100 µM | NCI-H522 > 100 µM

COC1=CC(=O)N(C(=O)[C@@H](OC(=O)[C@@H](C)N(C)C(=O)[C@@H]2CCCN2C(=O)[C@H](C(C)C)N(C)C(=O)[C@@H](NC(=O)[C@H](C(C)C)N(Cc2ccccc2)Cc2ccccc2)C(C)C)C(C)C)[C@H]1Cc1ccccc1 (Bn2Val-V[NMeV]P[dNMeA]-X26)
inactive: OVCAR-3 > 100 µM | UACC-62 > 60.7 µM | OVCAR-5 > 100 µM | SNB-19 > 90.2 µM | U-251 11.4 µM | OVCAR-4 > 100 µM | UACC-257 > 26.1 µM | HOP-92 > 49.3 µM | SK-MEL-28 > 100 µM | TK-10 > 100 µM | UO-31 6.44 µM | HCC 2998 > 100 µM | HCT-116 4.32 µM | BT-549 > 100 µM | HOP-62 > 57.3 µM | NCI-H522 > 100 µM

COC(=O)Nc1nc2ccccc2[nH]1 [CARBENDAZIM]
inactive: OVCAR-3 4 µM | UACC-62 4 µM | OVCAR-5 49.4 µM | RPMI-8226 5.25 µM | SNB-19 10.1 µM | U-251 4.86 µM | OVCAR-4 > 47.4 µM | UACC-257 > 61 µM | HOP-92 > 100 µM | SK-MEL-28 16.2 µM | SNB-75 9.38 µM | TK-10 > 49.2 µM | UO-31 20.7 µM | HCC 2998 5.37 µM | HCT-116 4.21 µM | BT-549 10.1 µM | HOP-62 11.1 µM | NCI-H23 14.2 µM
